{"source": "patent US20160166572A1", "about": "“BENEFICIAL EFFECTS OF Lp-PLA2 INHIBITORS IN TREATMENT OF DIABETIC RETINOPATHY AND AGE-RELATED MACULAR DEGENERATION” (Rowan University, priority 2014, published 2016)", "key": {"occludin [1]": {"tested_on": "occludin", "assay": "Occludin protein expression in BVECs of cerebral cortex (IHC, MATLAB), DMHC pigs", "assay_type": "in vivo, pig", "conditions": "Darapladib 10 mg/kg/d orally, 24 weeks", "protocol": "Briefly, after induction of diabetes by a single injection of Streptozotocin, animals were fed a high cholesterol diet. After a month of DMHC induction and acclimation, animals were randomly segregated to untreated DMHC and Darapladib-treated DMHC groups. Darapladib-treated pigs received 10 mg/kg/d of Darapladib orally. Three of the pigs were spared from DMHC induction and served as age-matched, non-DMHC normal controls. Twenty four weeks after acclimation, animals were euthanized and their brains and eyes were immediately removed. Brains were divided anteroposteriorly into anterior, middle and posterior regions. For each of these brain regions, 2-3 tissue blocks were generated for routine tissue fixation (10% formalin) or freezing and histological processing. The anterior cortical region comprised of anterior 2⁄3 of frontal lobe and anterior 1⁄3 of temporal lobe. The middle cortical region contained mid 1⁄3 of temporal lobe and anterior 1⁄2 of the parietal lobe. The posterior cortex included the posterior 1⁄2 of the parietal lobe, posterior 1⁄3 of the temporal lobe and the occipital lobe. Eyes were dissected longitudinally to sever the retina at the optic nerve. The sections were fixed in 10% formalin and embedded as flattened disc in paraffin. The tissue samples were processed using routine histology techniques. Standard Hematoxylin & Eosin (H&E) staining (FIG. 1) was carried out in retinal sections. […] Extravasated IgG was detected using biotinylated anti-swine IgG antibody (Vector laboratories, Inc., Catalogue # BA-9020; dilution 1:100). […] Slides were examined and photographed with a Nikon FXA microscope, and digital images were recorded using a Nikon DXM1200F digital camera and analyzed using MATLAB (MathWorks, Mass., USA) and NIS-elements software (Nikon, Melville, N.Y.). […] Claudin5 and occludin protein expression in pig cerebral cortex was evaluated semi-quantitatively using IHC by taking images at five random locations as described previously. Images were analyzed using MATLAB (MathWorks, Mass., USA). […]"}, "occludin [2]": {"tested_on": "occludin", "assay": "Occludin gene expression in cerebral cortex (RT-PCR, beta-actin reference), DMHC pigs", "assay_type": "in vivo, pig", "conditions": "Darapladib 10 mg/kg/d orally, 24 weeks, rank among treatment groups, FIG. 8B", "protocol": "Briefly, after induction of diabetes by a single injection of Streptozotocin, animals were fed a high cholesterol diet. After a month of DMHC induction and acclimation, animals were randomly segregated to untreated DMHC and Darapladib-treated DMHC groups. Darapladib-treated pigs received 10 mg/kg/d of Darapladib orally. Three of the pigs were spared from DMHC induction and served as age-matched, non-DMHC normal controls. Twenty four weeks after acclimation, animals were euthanized and their brains and eyes were immediately removed. Brains were divided anteroposteriorly into anterior, middle and posterior regions. […]\nRelative quantification of claudin5 and occludin gene expression was carried out using the reporter dye SYBR green and Applied Biosystems 7500 real time polymerase chain reaction (RT-PCR) system. […] Relative quantification of the claudin5 and occludin gene expression was conducted using beta actin (β-actin), a house keeping gene, as a standard. The amplification profiles of all samples were analyzed using Applied Biosystems software. […]\nChanges in claudin 5 and occludin gene expression in response to DMHC and Darapladib treatment were assessed in the middle brain region only of the pig cerebral cortex by real-time polymerase chain reaction (RT-PCR) using beta-actin as a reference (FIG. 8)."}, "BBB": {"tested_on": "BBB", "assay": "BBB permeability, IgG binding and Aβ42 deposition in cerebral cortex, animal model of DM and hypercholesterolemia", "assay_type": "in vivo"}}}
{"molecule": "CCN(CC)CCN(Cc1ccc(-c2ccc(C(F)(F)F)cc2)cc1)C(=O)Cn1c(SCc2ccc(F)cc2)nc(=O)c2c1CCC2", "note": "[Darapladib]", "values": [{"measurement": "occludin protein expression, middle cortex", "setting": "occludin [1]; FIG. 7E", "result": "comparable levels of occludin expression"}, {"measurement": "occludin protein expression, anterior cortex", "setting": "occludin [1]; rank among treatment groups, FIG. 7D", "result": "highest level of occludin expression"}, {"measurement": "occludin protein expression, posterior cortex", "setting": "occludin [1]; rank among treatment groups, FIG. 7F", "result": "lowest expression"}, {"measurement": "occludin gene expression, middle brain region of cerebral cortex", "setting": "occludin [2]", "result": "highest claudin5 and occludin levels"}, {"measurement": "Aβ42 deposition in cortical pyramidal neurons", "setting": "BBB", "result": "reverse"}, {"measurement": "BBB permeability", "setting": "BBB", "result": "reverse"}, {"measurement": "IgG binding in cortical pyramidal neurons", "setting": "BBB", "result": "reverse"}]}
